Reference: patent US7704995B2 (Exelixis, Inc., priority 2003, dated 2010)
pIC50: −log10 of the molar value.

Biological target: T1, Chk1 (Homo sapiens, UniProt O14757)
T1 construct: purchased Upstate Biotechnology
T1 sequence (O14757 1-476): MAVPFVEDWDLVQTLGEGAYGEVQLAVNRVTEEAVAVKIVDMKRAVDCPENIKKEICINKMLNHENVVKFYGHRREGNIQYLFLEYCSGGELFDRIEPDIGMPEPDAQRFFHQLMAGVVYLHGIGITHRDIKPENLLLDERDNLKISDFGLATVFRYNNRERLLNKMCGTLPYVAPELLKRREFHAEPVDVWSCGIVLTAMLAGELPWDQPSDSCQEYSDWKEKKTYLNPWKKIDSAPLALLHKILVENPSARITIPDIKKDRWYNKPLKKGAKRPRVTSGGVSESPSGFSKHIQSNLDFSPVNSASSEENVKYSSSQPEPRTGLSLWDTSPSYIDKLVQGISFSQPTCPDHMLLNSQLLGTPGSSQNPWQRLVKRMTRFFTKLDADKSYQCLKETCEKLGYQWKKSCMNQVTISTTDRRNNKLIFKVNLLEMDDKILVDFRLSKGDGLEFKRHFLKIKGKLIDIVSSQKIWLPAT
Assay: Chk1 kinase assay: incorporation of γ-33P ATP into immobilized myelin basic protein
Assay type: biochemical
Details: Table 11; Chk1 only; read-out: Chk1 IC50
Method in brief: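 Enzyme activity is measured as γ-33P transfer from ATP onto immobilized MBP over 1 h at room temperature, with Chk1 at 10 nM/10 μM unlabeled ATP and Chk2 at 20 nM/30 μM unlabeled ATP. Compounds are tested in 1% DMSO.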

SMILES | pIC50
Nc1ncc(-c2cccc(CO)c2)nc1-c1nc([C@@H]2CCCNC2)n[nH]1 [Example 724, [3-(5-amino-6{3-[(3R)-piperidin-3-yl]-1H-1,2,4-triazol-5-yl}pyrazin-2-yl)phenyl]methanol] | 6.00 to 7.30
Nc1ncc(-c2cccc(CO)c2)nc1-c1nc([C@H]2CCCNC2)n[nH]1 [Example 725, [3-(5-amino-6-{3[(3S)-piperidin-3-yl]-1H-1,2,4-triazol-5-yl}pyrazin-2-yl)phenyl]methanol] | 6.00 to 7.30
Nc1ncc(-c2cccc(C(=O)N[C@@H]3c4ccccc4C[C@@H]3O)c2)nc1C(=O)N[C@H]1CCNC1 [Example 726, 3-amino-6-[3-({[(1R,2S)-2-hydroxy-2,3-dihydro-1H-inden-1-yl]amino}carbonyl)phenyl]-N-[(3S)-pyrrolidin-3-yl]pyrazine-2-carboxamide] | > 7.30
CCN1CC[C@H](NC(=O)c2nc(-c3cccc(C(=O)N[C@H]4c5ccccc5C[C@H]4O)c3)cnc2N)C1 [Example 727, 3-amino-N-[(3S)-1-ethylpyrrolidin-3-yl]-6-[3-({[(1S,2R)-2-hydroxy-2,3-dihydro-1H-inden-1-yl]amino}carbonyl)phenyl]pyrazine-2-carboxamide] | 5.00 to 6.00
CC(C)(C)OC(=O)N1CCCC(NC(=O)c2nc(-c3cccc(C(=O)N[C@H]4CCc5ccccc54)c3)cnc2N)C1 (stereo partly drawn) [Example 728, 1,1-dimethylethyl 3-({[3-amino-6-(3-{[(1S)-2,3-dihydro-1H-inden-1-ylamino]carbonyl}phenyl)pyrazin-2-yl]carbonyl}amino)piperidine-1-carboxylate] | ≤ 5.00
Nc1ncc(-c2cccc(C(=O)N[C@H]3CCc4ccccc43)c2)nc1C(=O)NC1CCCNC1 (stereo partly drawn) [Example 729, 3-amino-6-(3-{[(1S)-2,3-dihydro-1H-inden-1-ylamino]carbonyl}phenyl)-N-piperidin-3-ylpyrazine-2-carboxamide] | > 7.30
CCN1CCCC(NC(=O)c2nc(-c3cccc(C(=O)N[C@H]4CCc5ccccc54)c3)cnc2N)C1 (stereo partly drawn) [Example 730, 3-amino-6-(3-{[(1S)-2,3-dihydro-1H-inden-1-ylamino]carbonyl}phenyl)-N-(1-ethylpiperidin-3-yl)pyrazine-2-carboxamide] | 6.00 to 7.30
CCN1CC[C@H](NC(=O)c2nc(-c3cccc(C(=O)N[C@@H]4c5ccccc5C[C@@H]4O)c3)cnc2N)C1 [Example 731, 3-amino-N-[(3S)-1-ethylpyrrolidin-3-yl]-6-[3-({[(1R,2S)-2-hydroxy-2,3-dihydro-1H-inden-1-yl]amino}carbonyl)phenyl]pyrazine-2-carboxamide] | 6.00 to 7.30
CCN1CCCC(c2nnc(-c3nc(-c4cccc(CO)c4)cnc3N)[nH]2)C1 (stereo not shown) [Example 732, (3-{5-amino-6-[5-(1-ethylpiperidin-3-yl)-4H-1,2,4-triazol-3-yl]pyrazin-2-yl}phenyl)methanol] | 5.00 to 6.00
CCN1CCCC(c2nnc(-c3nc(-c4cccc(CN[C@H]5CCc6ccccc65)c4)cnc3N)[nH]2)C1 (stereo partly drawn) [Example 733, 5-(3-{[(1S)-2,3-dihydro-1H-inden-1-ylamino]methyl}phenyl)-3-[5-(1-ethylpiperidin-3-yl)-4H-1,2,4-triazol-3-yl]pyrazin-2-amine] | 6.00 to 7.30
CCn1nc(-c2nc(-c3cccc(C(=O)N[C@@H]4CCc5ccccc54)c3)cnc2N)nc1C1CCCNC1 (stereo partly drawn) [Example 734, 3-[5-amino-6-(1-ethyl-5-piperidin-3-yl-1H-1,2,4-triazol-3-yl)pyrazin-2-yl]-N-[(1R)-2,3-dihydro-1H-inden-1-yl]benzamide] | 6.00 to 7.30
Cn1nc(-c2nc(-c3cccc(C(=O)N[C@H]4CCc5ccccc54)c3)cnc2N)nc1C1CCCNC1 (stereo partly drawn) [Example 735, 3-(5-amino-6-(1-methyl-5-piperidin-3-yl-1H-1,2,4-triazol-3-yl)pyrazin-2-yl]-N-[(1S)-2,3-dihydro-1H-inden-1-yl]benzamide] | 6.00 to 7.30
CN1CCCC(c2n[nH]c(-c3nc(-c4cccc(CO)c4)cnc3N)n2)C1 (stereo not shown) [Example 736, (3-{5-amino-6-[3-(1-methylpiperidin-3-yl)-1H-1,2,4-triazol-5-yl]pyrazin-2-yl}phenyl)methanol] | 5.00 to 6.00
CN1CCCC(c2n[nH]c(-c3nc(-c4cccc(CN[C@H]5CCc6ccccc65)c4)cnc3N)n2)C1 (stereo partly drawn) [Example 737, 5-(3-{[(1S)-2,3-dihydro-1H-inden-1-ylamino]methyl}phenyl)-3-[3-(1-methylpiperidin-3-yl)-1H-1,2,4-triazol-5-yl]pyrazin-2-amine] | 6.00 to 7.30
COc1ccc(CNC(=O)c2cccc(-c3cnc(N)c(C(=O)N[C@H]4CCN(C(=O)OC(C)(C)C)C4)n3)c2)cc1 [Example 738, 1,1-dimethylethyl (3S)-3-{[(3-amino-6-{3-[({[4-(methyloxy)phenyl]methyl}amino)carbonyl]phenyl}pyrazin-2-yl)carbonyl]amino}pyrrolidine-1-carboxylate] | 6.00 to 7.30
CC(C)(C)OC(=O)N1CC[C@H](NC(=O)c2nc(-c3cccc(C(=O)NCc4ccc(OC(F)(F)F)cc4)c3)cnc2N)C1 [Example 739, 1,1-dimethylethyl (3S)-3-({[3-amino-6-(3-{[({4-[(trifluoromethyl)oxy]phenyl}methyl)amino]carbonyl}phenyl)pyrazin-2-yl]carbonyl}amino)pyrrolidine-1-carboxylate] | 6.00 to 7.30
CC(C)(C)OC(=O)N1CC[C@H](NC(=O)c2nc(-c3cccc(C(=O)NCc4c(F)cccc4Cl)c3)cnc2N)C1 [Example 740, 1,1-dimethylethyl (3S)-3-[({3-amino-6-[3-({[(2-chloro-6-fluorophenyl)methyl]amino}carbonyl)phenyl]pyrazin-2-yl}carbonyl)amino]pyrrolidine-1-carboxylate] | 5.00 to 6.00
CSc1ccc(CNC(=O)c2cccc(-c3cnc(N)c(C(=O)N[C@H]4CCN(C(=O)OC(C)(C)C)C4)n3)c2)cc1 [Example 741, 1,1-dimethylethyl (3S)-3-{[(3-amino-6-{3-[({[4-(methylthio)phenyl]methyl}amino)carbonyl]phenyl}pyrazin-2-yl)carbonyl]amino}pyrrolidine-1-carboxylate] | 5.00 to 6.00
CC(C)(C)OC(=O)N1CC[C@H](NC(=O)c2nc(-c3cccc(C(=O)NC4Cc5ccccc5C4)c3)cnc2N)C1 [Example 742, 1,1-dimethylethyl (3S)-3-{[(3-amino-6-{3-[(2,3-dihydro-1H-inden-2-ylamino)carbonyl]phenyl}pyrazin-2-yl)carbonyl]amino}pyrrolidine-1-carboxylate] | 6.00 to 7.30
COc1ccc(CNC(=O)c2cccc(-c3cnc(N)c(C(=O)N[C@H]4CCNC4)n3)c2)cc1 [Example 743, 3-amino-6-{3-[({[4-(methyloxy)phenyl]methyl}amino)carbonyl]phenyl}-N-[(3S)-pyrrolidin-3-yl]pyrazine-2-carboxamide] | 6.00 to 7.30
Nc1ncc(-c2cccc(C(=O)NCc3ccc(OC(F)(F)F)cc3)c2)nc1C(=O)N[C@H]1CCNC1 [Example 744, 3-amino-N-[(3S)-pyrrolidin-3-yl]-6-(3-{[({4-[(trifluoromethyl)oxy]phenyl}methyl)amino]carbonyl}phenyl)pyrazine-2-carboxamide] | > 7.30
Nc1ncc(-c2cccc(C(=O)NC3Cc4ccccc4C3)c2)nc1C(=O)N[C@H]1CCNC1 [Example 745, 3-amino-6-{3-[(2,3-dihydro-1H-inden-2-ylamino)carbonyl]phenyl}-N-[(3S)-pyrrolidin-3-yl]pyrazine-2-carboxamide] | 6.00 to 7.30
Nc1ncc(-c2cccc(C(=O)NCc3c(F)cccc3Cl)c2)nc1C(=O)N[C@H]1CCNC1 [Example 746, 3-amino-6-[3-({[(2-chloro-6-fluorophenyl)methyl]amino}carbonyl)phenyl]-N-[(3S)-pyrrolidin-3-yl]pyrazine-2-carboxamide] | 6.00 to 7.30
CSc1ccc(CNC(=O)c2cccc(-c3cnc(N)c(C(=O)N[C@H]4CCNC4)n3)c2)cc1 [Example 747, 3-amino-6-{3-[({[4-(methylthio)phenyl]methyl}amino)carbonyl]phenyl}-N-[(3S)-pyrrolidin-3-yl]pyrazine-2-carboxamide] | > 7.30
N=C(NNc1ccncc1)c1nc(-c2cccc(C(=O)N[C@@H]3CCc4ccccc43)c2)cnc1N [Example 748, 3-{5-amino-6-[imino(2-pyridin-4-ylhydrazino)methyl]pyrazin-2-yl}-N-[(1R)-2,3-dihydro-1H-inden-1-yl]benzamide] | 5.00 to 6.00
CCn1nc(-c2nc(-c3cccc(C(=O)N[C@H]4CCc5ccccc54)c3)cnc2N)nc1[C@@H]1CCCN(C(=O)OCc2ccccc2)C1 [Example 749, phenylmethyl (3R)-3-{3-[3-amino-6-(3-{[(1S)-2,3-dihydro-1H-inden-1-ylamino]carbonyl}phenyl)pyrazin-2-yl]-1-ethyl-1H-1,2,4-triazol-5-yl}piperidine-1-carboxylate] | ≤ 5.00
CNC(=O)c1nc(-c2cccc([C@H](C)N[C@H]3CCc4ccccc43)c2)cnc1N [Example 750, 3-amino-6-(3-{(1S)-1-[(1S)-2,3-dihydro-1H-inden-1-ylamino]ethyl}phenyl)-N-methylpyrazine-2-carboxamide] | 6.00 to 7.30
Nc1ncc(-c2cccc(C(=O)N[C@@H]3c4ccccc4C[C@@H]3O)c2)nc1C(=O)NCCc1c[nH]cn1 [Example 751, 3-amino-6-[3-({[(1R,2S)-2-hydroxy-2,3-dihydro-1H-inden-1-yl]amino}carbonyl)phenyl]-N-[2-(1H-imidazol-4-yl)ethyl]pyrazine-2-carboxamide] | 6.00 to 7.30
